Experimental data: patent publication US20020061888A1, “Combination therapy for the prophylaxis and treatment of hyperlipidemic conditions and disorders” (priority 2000, published 2002)
Each block holds one compound with its values, some of them ahead of it.

Assay: Water uptake experiments (Dynamic Vapor Sorption, water sorption/desorption isotherms at 25° C.)
Assay type: physicochemical
Procedure: A dry sample of the crystalline form having a melting point or a decomposition point of about 278° C. to about 285° C. (i.e., Form II) typically gains less than about 1% of its own weight when equilibrated under 80% relative humidity (RH) air at 25° C. […] For the present purposes, the term “essentially 0% RH” means less than about 1% RH. The term “equilibrated” means that the change in weight of a sample over time at a given relative humidity is less than 0.0003% ((dm/dt)/m0 ×100, where m is mass in mg, m0 is initial mass, and t is time in minutes).
Water sorption experiments are performed on a Dynamic Vapor Sorption (DVS) apparatus (DVS-1000 manufactured by Surface Measurements Systems, Inc.). Experiments are performed at 25° C. by initially drying the material of interest (about 10 mg sample) from 30% relative humidity (RH) ([…] RH step) by purging with dry nitrogen until no further weight change was observed. The samples are then exposed to a stepwise (10% RH steps) increase in RH from about 0 to about 90% RH. Each successive step is initiated when the change in weight over time at the relative humidity was less than 0.0003% ((dm/dt)/m0×100, where m is mass in mg, m0 is initial mass, and t is time in minutes). The sample is then taken through the reverse of the stepwise % RH increase. The data are collected on a computer and analyzed using SMS' proprietary MS-Excel macro interface software.

- Desorption % Weight Change (0.45% RH at 25° C.): 0.057%
- Sorption % Weight Change (0.45% RH at 25° C.): 0.057%
- Desorption % Weight Change (9.2% RH at 25° C.): 0.997%
- Sorption % Weight Change (9.2% RH at 25° C.): 0.9575%
- Desorption % Weight Change (20.05% RH at 25° C.): 2.1025%
- Sorption % Weight Change (20.05% RH at 25° C.): 2.016%
- Desorption % Weight Change (29.75% RH at 25° C.): 3.599%
- Sorption % Weight Change (29.75% RH at 25° C.): 3.4105%
- Desorption % Weight Change (39.4% RH at 25° C.): 4.743%
- Sorption % Weight Change (39.4% RH at 25° C.): 4.282%
- Desorption % Weight Change (49.55% RH at 25° C.): 5.321%
- Sorption % Weight Change (49.55% RH at 25° C.): 4.928%
- Desorption % Weight Change (59.4% RH at 25° C.): 5.726%
- Sorption % Weight Change (59.4% RH at 25° C.): 5.356%
- Desorption % Weight Change (69.05% RH at 25° C.): 6.054%
- Sorption % Weight Change (69.05% RH at 25° C.): 5.706%
- Desorption % Weight Change (78.8% RH at 25° C.): 6.357%
- Sorption % Weight Change (78.8% RH at 25° C.): 6.109%
- Desorption % Weight Change (88.5% RH at 25° C.): 6.734%
- Sorption % Weight Change (88.5% RH at 25° C.): 6.734%
Compound: CCCCC1(CCCC)CS(=O)(=O)c2ccc(N(C)C)cc2[C@@H](c2ccc(OCc3ccc(C[N+]45CCN(CC4)CC5)cc3)cc2)[C@H]1O [Form I, (4R,5R)-1-((4-(4-(3,3-dibutyl-7-(dimethylamino)-2,3,4,5-tetrahydro-4-hydroxy-1,1-dioxido-1-benzithiepin-5-yl)phenoxy)methyl)phenyl)methyl-4-aza-1-azoniabicyclo[2.2.2]octane chloride]

- Desorption % Weight Change (1.3% RH at 25° C.): −0.02695%
- Sorption % Weight Change (1.3% RH at 25° C.): −0.02695%
- Desorption % Weight Change (9.35% RH at 25° C.): 0.04235%
- Sorption % Weight Change (9.35% RH at 25° C.): 0.04715%
- Desorption % Weight Change (20.25% RH at 25° C.): 0.09715%
- Sorption % Weight Change (20.25% RH at 25° C.): 0.1058%
- Desorption % Weight Change (29.75% RH at 25° C.): 0.1444%
- Sorption % Weight Change (29.75% RH at 25° C.): 0.1376%
- Desorption % Weight Change (39.55% RH at 25° C.): 0.1866%
- Sorption % Weight Change (39.55% RH at 25° C.): 0.1809%
- Desorption % Weight Change (49.7% RH at 25° C.): 0.2636%
- Sorption % Weight Change (49.7% RH at 25° C.): 0.2386%
- Desorption % Weight Change (59.5% RH at 25° C.): 0.331%
- Sorption % Weight Change (59.5% RH at 25° C.): 0.304%
- Desorption % Weight Change (69.1% RH at 25° C.): 0.3983%
- Sorption % Weight Change (69.1% RH at 25° C.): 0.3945%
- Desorption % Weight Change (78.65% RH at 25° C.): 0.4849%
- Sorption % Weight Change (78.65% RH at 25° C.): 0.4695%
- Desorption % Weight Change (88.5% RH at 25° C.): 0.6446%
- Sorption % Weight Change (88.5% RH at 25° C.): 0.6446%
- hygroscopicity (crystalline form, 80% RH air at 25° C.): essentially non-hygroscopic
- weight gain when equilibrated under 80% relative humidity (RH) air at 25° C. (dry sample (dried at essentially 0% RH, about 25° C., dry nitrogen purge)): less than 1 % of its own weight
Compound: CCCCC1(CCCC)CS(=O)(=O)c2ccc(N(C)C)cc2[C@@H](c2ccc(OCc3ccc(C[N+]45CCN(CC4)CC5)cc3)cc2)[C@H]1O [Form II, (4R,5R)-1-((4-(4-(3,3-dibutyl-7-(dimethylamino)-2,3,4,5-tetrahydro-4-hydroxy-1,1-dioxido-1-benzithiepin-5-yl)phenoxy)methyl)phenyl)methyl-4-aza-1-azoniabicyclo[2.2.2]octane chloride]
